For assay [1], the target named is T1, Histone-lysine N-methyltransferase EZH2/Polycomb protein EED/Polycomb protein SUZ12 (Human, UniProt O75530+Q15022+Q15910). Briefly: EZH2 LC-MS Assay. The procedure: Representative compounds of the invention were serially and separately diluted 3-fold in DMSO to obtain twelve concentrations. […] Solutions (6 μL) of 80 nM wild type PRC2 (wtPRC2) complex and 60 μM SAM in reaction buffer (20 mM Tris, pH 8.0, 0.1% BSA, 0.01% Triton, 0.5 mM DTT) were added to the wells that were then incubated with the test compound for 20 min. A 6 μL solution of 3 μM of the substrate peptide H3K27me1 (histone H3[21-44]-K27me1-biotin) and 6 μM regulatory peptide H3K27me3 (histone H3[21-44]-K27me3) in reaction buffer was added to initiate each reaction. […] The data were fit to a dose response equation using the program Helios to get the IC50 values of the test compound.

In assay [2] the target is T1, Histone-lysine N-methyltransferase EZH2/Polycomb protein EED/Polycomb protein SUZ12. Briefly: ELISA Assay. How it is done: ELISA protocol: Cell lysates were transferred to the wells of a 384-well plate and the final volume was adjusted to 50 μL per well with PBS. The plate was sealed, centrifuged at 2,000 rpm for 2 min and incubated at 4° C. for about 16 h. The plate was washed with TBST buffer (1×TBS (10×TBS: 24.2 g Tris (Sigma, T6066), 80 g NaCl (Sigma, S3014) to 1 L of water and adjust pH to 7.6 with HCl) with 0.1% Tween-20). Blocking buffer (TBST, 5% BSA; 50 μL per well) was added and the plate was incubated for 1 h at rt. The blocking buffer was removed and primary antibody was added (30 μL per well). […] The primary antibody was incubated in the plate at rt for 1 h. The wells were washed with TBST and incubated with secondary antibody for 1 h at rt.

The values below come from BindingDB's records for patent US12544374 (Novartis, 2026).

T1 sequence (Q15910 whole entry): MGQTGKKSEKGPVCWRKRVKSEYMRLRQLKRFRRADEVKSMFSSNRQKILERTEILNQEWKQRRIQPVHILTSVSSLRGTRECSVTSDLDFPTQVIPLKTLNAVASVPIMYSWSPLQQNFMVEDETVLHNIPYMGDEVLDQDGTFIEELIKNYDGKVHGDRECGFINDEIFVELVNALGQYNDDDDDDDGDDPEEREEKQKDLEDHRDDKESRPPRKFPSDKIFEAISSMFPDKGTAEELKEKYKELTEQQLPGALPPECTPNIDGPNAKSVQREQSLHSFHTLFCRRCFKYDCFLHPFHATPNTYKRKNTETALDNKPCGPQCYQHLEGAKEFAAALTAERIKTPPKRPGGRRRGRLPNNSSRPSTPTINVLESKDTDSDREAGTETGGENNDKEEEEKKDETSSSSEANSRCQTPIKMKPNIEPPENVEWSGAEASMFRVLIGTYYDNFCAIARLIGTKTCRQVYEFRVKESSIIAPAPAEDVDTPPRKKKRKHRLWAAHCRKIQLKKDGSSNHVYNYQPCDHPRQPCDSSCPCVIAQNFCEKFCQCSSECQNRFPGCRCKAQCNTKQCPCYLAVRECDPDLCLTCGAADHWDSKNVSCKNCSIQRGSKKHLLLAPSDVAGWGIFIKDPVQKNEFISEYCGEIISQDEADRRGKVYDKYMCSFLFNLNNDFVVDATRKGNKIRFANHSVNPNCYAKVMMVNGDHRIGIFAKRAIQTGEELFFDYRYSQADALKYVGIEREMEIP
T1 sequence (O75530 whole entry): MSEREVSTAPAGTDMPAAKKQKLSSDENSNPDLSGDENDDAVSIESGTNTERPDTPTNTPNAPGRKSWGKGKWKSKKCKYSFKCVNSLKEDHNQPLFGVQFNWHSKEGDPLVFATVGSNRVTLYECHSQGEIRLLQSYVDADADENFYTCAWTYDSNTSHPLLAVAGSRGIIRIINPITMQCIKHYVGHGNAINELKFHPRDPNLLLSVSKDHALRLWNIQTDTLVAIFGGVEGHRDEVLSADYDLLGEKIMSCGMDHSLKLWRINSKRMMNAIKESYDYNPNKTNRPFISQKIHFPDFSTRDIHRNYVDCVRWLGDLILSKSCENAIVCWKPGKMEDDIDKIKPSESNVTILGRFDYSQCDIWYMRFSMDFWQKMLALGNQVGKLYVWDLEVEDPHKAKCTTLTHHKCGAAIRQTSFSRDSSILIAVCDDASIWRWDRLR
T1 sequence (Q15022 whole entry): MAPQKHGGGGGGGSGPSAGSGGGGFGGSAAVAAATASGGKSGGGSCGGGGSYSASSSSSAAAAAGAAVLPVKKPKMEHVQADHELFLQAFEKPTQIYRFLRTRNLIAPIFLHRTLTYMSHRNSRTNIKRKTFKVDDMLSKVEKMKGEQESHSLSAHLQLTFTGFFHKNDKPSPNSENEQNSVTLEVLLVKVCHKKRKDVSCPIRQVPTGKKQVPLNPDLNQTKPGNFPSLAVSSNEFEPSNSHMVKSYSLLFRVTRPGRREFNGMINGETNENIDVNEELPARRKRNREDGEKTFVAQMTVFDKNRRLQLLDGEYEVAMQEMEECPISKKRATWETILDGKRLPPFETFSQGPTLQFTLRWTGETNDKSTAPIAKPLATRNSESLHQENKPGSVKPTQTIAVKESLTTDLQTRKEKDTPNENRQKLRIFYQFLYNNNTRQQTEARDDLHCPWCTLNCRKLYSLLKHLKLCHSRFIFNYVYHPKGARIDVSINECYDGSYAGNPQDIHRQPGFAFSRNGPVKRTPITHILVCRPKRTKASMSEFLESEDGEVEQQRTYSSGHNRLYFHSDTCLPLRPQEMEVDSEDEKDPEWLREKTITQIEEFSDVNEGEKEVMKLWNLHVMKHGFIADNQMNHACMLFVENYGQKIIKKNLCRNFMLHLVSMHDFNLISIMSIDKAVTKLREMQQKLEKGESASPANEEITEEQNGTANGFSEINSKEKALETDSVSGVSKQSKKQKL

Take `COCCOC(=O)Nc1cnc(NCC2CCC(Nc3ccc4ccnc(Cl)c4n3)CC2)nc1` (stereo not drawn) [US12544374, Compound C16]: the IC50 (in general, the midpoint of a concentration-inhibition curve) in assay [1] stood at 0.015 µM; in assay [2], 0.027 µM.

Turning to `Clc1nccc2ccc(NC3CCC(CNc4ncc(COC5COC5)cn4)CC3)nc12` (stereo not drawn) [US12544374, Compound C35], the IC50 in assay [1] was 0.027 µM.
